Data taken from a melting point compilation (Tetko et al.; mined from patent text by program, amines drawn as free bases though some values may be those of a salt).

Row | Compound | melting point [°C]
1 | O=c1[nH]c(NCCSCc2ccco2)ncc1Cc1cccnc1 | 136 to 139
2 | COc1nc2c(C)cc(C)cc2c(-c2ccccc2Cl)c1NC(=O)Nc1cccc(C(F)(F)F)c1 | 151 to 153
3 | O=[N+]([O-])c1ccc(C=NNC2O[C@H](COCc3ccccc3)[C@@H](OCc3ccccc3)[C@H]2OCc2ccccc2)cc1 (some centres not stated) | 93
4 | CC(C=CC=C(C)C=CC1C(C)=CC(=O)CC1(C)C)=CC=CC=C(C)C=CC=C(C)C=CC1C(C)=CC(=O)CC1(C)C (configuration not stated) | 185 to 187
5 | O=S1(=O)CC=C(CBr)C1 | 76 to 84
6 | O=C(O)COc1ccc(-c2c3ccccc3c(Br)c3sc4ccccc4c23)cc1 | 198 to 200
7 | CN(CSC(C)(C)CC(C)(C)C)C(=O)Nc1cccc(C(F)(F)F)c1 | 52 to 54
8 | CC(=O)Oc1ccc(-c2c3ccccc3c(Br)c3sc(C)c(C)c23)cc1 | 190 to 191
9 | c1ccc(Nc2nnc(-c3cccnc3)s2)cc1 | 252 to 255
10 | Cc1cc(-n2ccnc2)c2cccc(OCc3c(Cl)ccc(S(=O)(=O)N4CCC[C@H]4C(=O)N4CCN(c5ccccn5)CC4)c3Cl)c2n1 | 108
11 | CCCCCCCCCCCCCc1c[nH]c(C=O)c1 | 61 to 64
12 | CC1(C)CC(NC(=O)CCC(=O)NC2CC(C)(C)N(OC3CCCCC3)C(C)(C)C2)CC(C)(C)N1OC1CCCCC1 | 230 to 234
13 | O=c1c2ccc(Cl)cc2[nH]c2c(O)nn(Cc3cc4ccccc4s3)c(=O)c12 | > 300
14 | O=c1[nH]c2ccc(Cl)cc2s1 | 212 to 213
15 | CC(C)CCN1C(=O)C(NC(=O)Oc2cccc(N(C)C)c2)C(=O)N(c2ccccc2F)c2ccccc21 (configuration not stated) | 193 to 194
16 | NC(=S)c1cccc(-c2cccc(C(N)=S)c2)c1 | 188 to 190
17 | Cc1cc(Cl)cc(COc2cccc(OCc3ccc4ccccc4n3)c2)c1OCc1nnn[nH]1 | 181 to 184
18 | O=C1NC(=O)C(c2ccc(NCc3ccc(Cl)c(Cl)c3)cc2)S1 (configuration not stated) | 132 to 133
19 | Nc1ccc(Oc2ccc(C3(c4ccc(Oc5ccc(N)cc5)cc4)CCC(c4ccccc4)CC3)cc2)cc1 | 90.7 to 92.2
20 | CN(C)c1ccc(CNc2ncnc3c2ncn3C2OC(CO)C(O)C2O)cc1 (configuration not stated) | 170 to 171
21 | O=S(=O)(c1ccc(Cl)cc1)c1c(-c2ccc(Cl)cc2)[nH]c(C(F)(F)F)c1Br | > 230
22 | CCCCC(CC)C(=O)Nc1ccc2ccn(Cc3ccc(C(=O)CS(=O)(=O)c4ccccc4)cc3OC)c2c1 (configuration not stated) | 131 to 133
23 | CC(C)(C)n1c(=O)[nH]c2ccccc2c1=O | 218 to 220

Row | Compound | melting point [°C]
24 | O=C(NCCSCc1cccc(Cl)c1)c1c(C(F)(F)F)cccc1C(F)(F)F | 93 to 94
25 | CC(=O)n1cc(C2=C(c3cn(C)c4ccccc34)C(=O)NC2=O)c2ccccc21 | 252 to 253
26 | Cc1ccc(C(=O)NC(Cc2ccccc2)NC(=S)Nc2cccc([N+](=O)[O-])c2)cc1 (configuration not stated) | 170 to 171
27 | C=CCN1C(=O)N(Cc2c(C)c(CN3C(=O)N(CC=C)C(=O)C3(C)C)c(C)c(CN3C(=O)N(CC=C)C(=O)C3(C)C)c2C)C(C)(C)C1=O | 150 to 155
28 | Cn1cc(-c2c(-c3ccccc3F)nn3ccncc23)ccc1=O | 193 to 194
29 | O=Cc1ccccc1-c1nnn[nH]1 | 130
30 | O=C1Nc2ccccc2C12COc1cc3c(cc12)OCCO3 (configuration not stated) | > 250
31 | CSc1ccc(-c2cc(Br)nn2-c2ccc(F)cc2)cc1 | 98 to 99
32 | CN1c2cccc3cccc(c23)N(CCCN2CC=C(c3ccccc3)CC2)S1(=O)=O | 146
33 | Cc1cc(-c2ccccc2)nc(N2CCN(c3ccc(O)cc3)CC2)c1C#N | 207
34 | O=C(c1c(Cl)cccc1Cl)n1cnc(-c2ccccc2)c1 | 135 to 136
35 | CC1(C)C=C(c2ccccn2)c2cc(Cl)cc(Cl)c2OC1 | 124
36 | O=[N+]([O-])c1ccc(OCc2cccc(F)c2)cc1 | 104 to 105
37 | CC(C)(C)OC(=O)N1CC(NC(=O)CNC(=NC(=O)OCc2ccc([N+](=O)[O-])cc2)NC(=O)OCc2ccc([N+](=O)[O-])cc2)C1 | 99 to 101
38 | CCCCCCCCN1C(=O)NC2(CC(C)(CC)NC(C)(CC)C2C)C1=O (configuration not stated) | 65 to 67
39 | CN(C)CNS(=O)(=O)c1ccc(-c2cnn(Cc3ccc(F)cc3F)c(=O)c2-c2ccc(F)cc2)cc1 | 193 to 195
40 | O=c1[nH]c(=O)c2cc(S(=O)(=O)O)ccc2[nH]1 | > 300
41 | O=C(O)COc1ccc(CN2C(=O)C3(COc4cc5c(cc43)OCCO5)c3ccccc32)cc1 (configuration not stated) | 223 to 224
42 | CCCCCCCCCCCCc1nnc(C(C(=O)Nc2c(C(C)C)cccc2C(C)C)c2ccccc2)o1 (configuration not stated) | 82 to 84
43 | CNc1nc(-c2cccc(NC(=S)c3ccc(C)cc3)c2)c2cc(OC)c(OC)cc2n1 | 209 to 211
44 | O=C1NC(Cc2c[nH]c3ccccc23)C(CCc2cc(C(F)(F)F)cc(C(F)(F)F)c2)N1CCN1CCOCC1 (configuration not stated) | 207
45 | Cc1ccc(S(=O)(=O)Cc2ccc(C(C)(C)N)cc2)cc1C | 129 to 130
46 | CC(C)c1[nH]c(Cl)c(C#N)c1SC#N | 159

The remaining lines, values ahead:

Row | melting point [°C] | Compound
47 | 178 to 181 | CC(C)(C)OC(=O)N(CC(=O)OCN1C(=O)CCC(N2C(=O)c3ccccc3C2=O)C1=O)C(=O)CN (configuration not stated)
48 | 193 to 196 | CCNC(=O)NC[C@H]1CN(c2ccc3c(c2)CCCc2cnoc2-3)C(=O)O1
49 | 173 to 174 | CC(=O)Nc1cc2c(cc1[N+](=O)[O-])OC(C)(C)O2
50 | 245 to 246 | CN(C)c1nc2ncnc(NCc3ccco3)c2[nH]1
51 | 122 to 123 | COC1C=C(C)C(=O)CC(C)(C)C1OC(=O)c1ccc([N+](=O)[O-])cc1 (configuration not stated)
52 | 173 | COC1CC(NC(C)=O)C(OC(=O)c2ccccc2)C(CBr)O1 (configuration not stated)
53 | 96 to 99 | COCC(C)(C)c1cc(N)no1
54 | 110 to 112 | CCCc1nc2c(C)ccnc2n1Cc1ccc(-c2ccncc2-c2nnn[nH]2)cc1
55 | 224 to 228 | C=CCc1c(O)ccc2c1ccc(=O)n2CC=C(C)C
56 | 151 to 153 | Nc1cc(NC(=O)c2ccc(Cl)c(Cl)c2)ccc1F
57 | 101 to 102 | CC(C)(C)C(Cc1ccc(Br)cc1)C(=O)n1ccnc1 (configuration not stated)
58 | 101 | CCC(=O)c1cc(C2(c3cccc(O)c3)N=C(N)N(C)C2=O)cn1CC (configuration not stated)
59 | 151 to 152 | Nc1nc(/C(=N/OCc2nnn[nH]2)C(=O)O)cs1
60 | 104 to 105 | Cc1oc(-c2ccccc2)nc1COc1ccccc1COc1cccc(CC(=O)O)c1
61 | 189 to 190 | CC(=O)Nc1ccc(C#Cc2c(F)c(F)nc(F)c2F)cc1
62 | 107 to 109 | Nc1ncnc2c1c(-c1ccc(Oc3ccccc3O)cc1)cn2C1CCCC1
63 | 194 to 197 | Cc1c(C(=O)NCc2ccc3c(Br)c(O)ccc3c2)oc2ccccc12
64 | 121 to 122 | CCOC(=O)C1CCc2sc3ccc(C#N)cc3c2C1 (configuration not stated)
65 | 230 to 231 | Cc1ccnc(C(=O)c2[nH]c3ccc(Cl)cc3c2CC(=O)O)c1
66 | 117 | CC(C)(C)OC(=O)n1c(C(=O)O)cc2ccccc21
67 | 134 to 137 | COC(=O)c1cccc(C=NNc2ccc(C)cc2)c1O
68 | 244 to 246 | C#CCN(c1ccc(C(=O)OC(C)(C)C)cc1)C1CCc2cc3nc(C)[nH]c(=O)c3cc21 (racemic)
69 | 119 to 121 | Nc1nc(NCC(O)CO)c2ncn(C3C=CC(CO)C3)c2n1 (configuration not stated)
70 | 213 to 214 | CSc1ccnc(-c2nc(=O)c3ccccc3s2)c1
71 | 227 to 229 | Cc1nc2cc(/C=C/C(=O)NO)ccc2c(=O)n1CCc1ccccc1
72 | 75 to 77 | CC(=O)c1c(C)oc(C)c1C(C)=O

Row | melting point [°C] | Compound
73 | 109 | Nc1cc(N)c(OCC(F)(F)F)cc1OCC(F)(F)F
74 | 190 to 192 | CCOc1cccc(C(COc2ccccc2)n2nc(C(=O)O)c3c2-c2ccc(OCc4cncnc4)cc2CC3)c1 (configuration not stated)
75 | 124 to 126 | COC(C)CNS(=O)(=O)c1cc(C2(O)CCC(=O)N2C)ccc1Cl (configuration not stated)
76 | 126 to 128 | O=C(Cn1ccnc1)c1ccc(Cl)c(Cl)c1
77 | 244 to 246 | Cc1cc(=S)c2c(O)cc(O)cc2o1
78 | 148 | CC(C)(C)OC(=O)NNC(=O)c1ccc(O)c(O)c1
79 | 151 to 152 | CCc1cc(C(=O)c2ccccc2Cl)c(-n2c(C)nnc2CNC(=O)c2ccc(Cl)c(Cl)c2)s1
80 | 150 to 152 | NC(=O)N(O)CCNC(=O)Cc1cccc(Oc2ccccc2)c1
81 | 144 to 145 | CCOC(=O)c1csc2cc(Oc3ccnc(N)n3)ccc12
82 | 188 | COC(=O)CCCc1cc2nc(Cl)ccc2n1S(=O)(=O)c1ccc(N(C)C)cc1
83 | 199 to 204 | CCN1c2ncc(CCc3ccc(NS(C)(=O)=O)cc3)cc2C(=O)N(C)c2ccc(Cl)nc21
84 | 144 | CC(C)c1ccc(S(=O)(=O)n2c(CCCC(=O)O)cc3nc(C(F)(F)F)ccc32)cc1
85 | 266 to 270 | CSc1ncc2cc(Br)c(=O)[nH]c2n1
86 | 190 to 192 | CN=C(N)N(C)Cc1ccc(C2=NNC(=O)CC2C)cc1 (configuration not stated)
87 | 146 to 149 | CCOC1Nc2c(OC(C)=O)cccc2C(=O)N2CCCC12 (configuration not stated)
88 | 33 to 35 | CCCC(=O)c1noc2ccccc12
89 | 126 to 127 | CC(C)(C)OC(=O)Cn1ncc2c1CCN(C(=O)OC(C)(C)C)C2
90 | 240 to 245 | CC(C)n1cc(-c2nc(C(N)=O)c(N)nc2-c2ccccc2)ccc1=O
91 | 95 to 96 | CC(=O)C(=Cc1cccc([N+](=O)[O-])c1)C(=O)OC(C)CCl (configuration not stated)
92 | 208 to 211 | O=C(O)c1ccc(NCCOc2ccc3ccccc3c2)cc1
93 | 108 to 109 | Cc1oc(-c2ccccc2)nc1COc1ccc(CCl)cc1
94 | 138 to 140 | CC1=C(C(=O)OC(C)C)C(c2cccc([N+](=O)[O-])c2)N(C(=O)Oc2ccc([N+](=O)[O-])cc2)C(=O)N1 (configuration not stated)
95 | 99 to 101 | CN(C(=O)Nc1nc(OCC(F)(F)F)cc(OCC(F)(F)F)n1)c1ccc(CC(F)(F)F)s1
96 | 280 | CCOC(=O)c1cnc(N)nc1O
97 | 216 to 217 | CCCCc1cc2c(=O)n3cc(C#N)ccc3nc2s1
